This note sets out measurements from PMC7443318 (Journal of medicinal chemistry, 2020).

Usually Ki stands for the equilibrium dissociation constant of an inhibitor or competing ligand from its target. The low end stands for tighter binding, the high end for weaker binding.

Experiment [1] concerns the target T1, hA3AR (Homo sapiens, UniProt P0DMS8).
T1 sequence (P0DMS8 1-318): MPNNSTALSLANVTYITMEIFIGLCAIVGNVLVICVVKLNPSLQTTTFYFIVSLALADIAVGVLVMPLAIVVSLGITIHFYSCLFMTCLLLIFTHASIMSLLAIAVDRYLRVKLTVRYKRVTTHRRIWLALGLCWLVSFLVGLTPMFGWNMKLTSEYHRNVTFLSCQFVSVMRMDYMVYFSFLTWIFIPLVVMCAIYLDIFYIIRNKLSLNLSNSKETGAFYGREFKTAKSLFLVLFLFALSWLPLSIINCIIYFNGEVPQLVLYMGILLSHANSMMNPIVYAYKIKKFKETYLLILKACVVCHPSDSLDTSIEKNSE

Experiment [2] has as its target T2, mA3AR (Mus musculus, UniProt Q61618).
T2 sequence (Q61618 1-319): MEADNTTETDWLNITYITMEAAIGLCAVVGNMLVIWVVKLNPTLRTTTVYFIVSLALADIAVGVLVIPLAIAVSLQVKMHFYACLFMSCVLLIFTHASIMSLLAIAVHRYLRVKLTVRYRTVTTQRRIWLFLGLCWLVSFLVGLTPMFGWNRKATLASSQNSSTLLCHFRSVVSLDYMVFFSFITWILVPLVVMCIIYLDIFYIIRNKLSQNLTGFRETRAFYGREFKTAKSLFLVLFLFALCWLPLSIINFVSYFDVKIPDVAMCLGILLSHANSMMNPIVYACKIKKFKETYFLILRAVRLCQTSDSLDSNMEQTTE

The test system of experiment [3] is 45 receptors, channels and transporters. Nature of the experiment: Off-target screen in radioligand binding assays. As to conditions: Table S1.
The subject of experiment [4] is wild-type C57BL/6 (WT) or A3AR-KO mice. Description: Mouse model of A3AR-induced hypothermia. It is filed as in vivo.
The target of experiment [5] is T1, hA3AR. As to conditions: fixed concentration of 15 (10 μM), Figure 1C.
In experiment [6] the target is translocator protein, TSPO (Rattus norvegicus, UniProt P16257). Description: Off-target radioligand binding, TSPO.
Sequence of translocator protein, TSPO (P16257 whole entry): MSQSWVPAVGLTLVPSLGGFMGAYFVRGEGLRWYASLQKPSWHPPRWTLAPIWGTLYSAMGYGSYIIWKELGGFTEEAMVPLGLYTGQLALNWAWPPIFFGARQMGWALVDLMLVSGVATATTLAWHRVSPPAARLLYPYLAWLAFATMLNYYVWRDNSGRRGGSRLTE

Entries after “also recorded” stand apart in the source; their conditions may differ. Where only a bound is given, the exact number is not on record here.

`O[C@@H]1[C@H](O)[C@@H]2C[C@@H]2[C@H]1n1cnc2c(N[C@H]3C[C@@H]3c3ccccc3)nc(C#Cc3ccc(Cl)s3)nc21` [Compound 31, (1R,2R,3S,4R,5S)-4-(2-((5-Chlorothiophen-2-yl)ethynyl)-6-(((1S,2R)-2-phenylcyclopropyl)amino)-9H-purin-9-yl)bicyclo[3.1.0]hexane-2,3-diol]: the “reduction of hA3AR affinity by cyclopropyl constraint of the N6-2-phenylethyl moiety” value in experiment [1] (compared to N6-2-phenylethyl analogue) is ~ 10 fold.

Consider `COc1cc(CCNc2nc(C#Cc3ccc(Cl)s3)nc3c2ncn3[C@H]2[C@H](O)[C@H](O)[C@@H]3C[C@@H]32)ccc1O` [Compound 29, (1R,2R,3S,4R,5S)-4-(2-((5-Chlorothiophen-2-yl)ethynyl)-6-((4-hydroxy-3-methoxyphenethyl)amino)-9H-purin-9-yl)bicyclo[3.1.0]hexane-2,3-diol], for which, in experiment [2], the “reduction of mA3AR affinity compared to 15” value stood at 4 fold.

For `COc1cc(CCNc2nc(C#Cc3ccccc3)nc3c2ncn3[C@H]2[C@H](O)[C@H](O)[C@@H]3C[C@@H]32)ccc1O` [Compound 15, (1R,2R,3S,4R,5S)-4-(6-((4-Hydroxy-3-methoxyphenethyl)amino)-2-(phenylethynyl)-9H-purin-9-yl)bicyclo[3.1.0]hexane-2,3-diol], the “Interaction with other GPCRs” value in experiment [3] is reported as “did not interact”. In addition, the “Effect of pretreatment on hypothermic effect of full agonist 39” value in experiment [4] (3 mg/kg or 10 mg/kg 15, 30 min prior to 39 (3 mg/kg)) is recorded as “did not significantly attenuate”. The “Effect on core body temperature (Tb)” value in experiment [4] (3 mg/kg, i.p., WT mice (Figure 2B)) is listed as “only weak hypothermia”; in experiment [4] (10 mg/kg, i.p., wild-type C57BL/6 mice (Figure 2A)) it was “lowered core body temperature”. Further, the “Effect on core body temperature (Tb) in ADORA3−/− mice” value in experiment [4] (10 mg/kg, i.p., ADORA3−/− mice, versus WT (Figure 2A)) is “greatly attenuated”. Moreover, the “Period over which in vivo agonism was maintained” value in experiment [4] (mouse) was above 2 h. Besides, the “increase of hA3AR affinity compared to 8” value in experiment [1] is recorded as ~ 2 fold. For the same molecule, the “increase of mA3AR affinity compared to 8” value in experiment [2] is given as ~ 27 fold. The “Antagonism of hA3AR activation by Cl-IB-MECA 38 in cAMP assay” value in experiment [5] is on record as “greatly inhibited the activation of hA3AR by Cl-IB-MECA; also recorded: shifted the concentration-response curve of Cl-IB-MECA 38 rightward”.

For `COc1ccc(CCNc2nc(C#Cc3ccccc3)nc3c2ncn3[C@H]2[C@H](O)[C@H](O)[C@@H]3C[C@@H]32)cc1O` [Compound 14, (1R,2R,3S,4R,5S)-4-(6-((3-Hydroxy-4-methoxyphenethyl)amino)-2-(phenylethynyl)-9H-purin-9-yl)bicyclo[3.1.0]hexane-2,3-diol], the “reduction of mA3AR affinity compared to 15” value in experiment [2] was determined as 7 fold.

For the molecule `Oc1ccc(CCNc2nc(C#Cc3ccccc3)nc3c2ncn3[C@H]2[C@H](O)[C@H](O)[C@@H]3C[C@@H]32)cc1` [Compound 10, (1R,2R,3S,4R,5S)-4-(6-((4-Hydroxyphenethyl)amino)-2-(phenylethynyl)-9H-purin-9-yl)bicyclo[3.1.0]hexane-2,3-diol], the “increase of mA3AR affinity compared to 8” value in experiment [2] is on record as 6 fold.

Turning to `Oc1ccc(CCNc2nc(C#Cc3ccccc3)nc3c2ncn3[C@H]2[C@H](O)[C@H](O)[C@@H]3C[C@@H]32)cc1F` [Compound 11, (1R,2R,3S,4R,5S)-4-(6-((3-Fluoro-4-hydroxyphenethyl)amino)-2-(phenylethynyl)-9H-purin-9-yl)bicyclo[3.1.0]hexane-2,3-diol], in experiment [1], the “increase of hA3AR affinity compared to 8” value stood at 2 fold.

On to `CNC(=O)[C@@]12C[C@@H]1[C@@H](n1cnc3c(NCc4cccc(Cl)c4)nc(C#Cc4ccc(F)c(F)c4)nc31)[C@H](O)[C@@H]2O` [Compound 39, (1S,2R,3S,4R,5S)-4-(6-((3-chlorobenzyl)amino)-2-((3,4-difluorophenyl)-ethynyl)-9H-purin-9-yl)-2,3-dihydroxy-N-methylbicyclo[3.1.0]hexane-1-carboxamide, reference compound], for which the Hypothermic effect result in experiment [4] (3 mg/kg, mice) is recorded as “pronounced hypothermic effect”.

The molecule `O[C@@H]1[C@H](O)[C@@H]2C[C@@H]2[C@H]1n1cnc2c(NCCc3cccc(Cl)c3)nc(C#Cc3ccc(Cl)s3)nc21` [Compound 26, (1R,2R,3S,4R,5S)-4-(6-((3-Chlorophenethyl)amino)-2-((5-chlorothiophen-2-yl)ethynyl)-9H-purin-9-yl)bicyclo[3.1.0]hexane-2,3-diol] gave a Ki in experiment [6] of around 350 nM.
